Laboratory results reported in the NIST ThermoML archive (doi:10.1021/je700261b).

Test: xn = mol fraction of the nth substance listed
Conditions: Liquid

CCCCO [butan-1-ol] + O=C=O
Conditions | mass density [kg/m3]
332.94 K, 21042 kPa, x2 = 0.9698 | 765.72
332.94 K, 21997 kPa, x2 = 0.9698 | 776.05
332.94 K, 22013 kPa, x2 = 0.0251 | 799.22
332.94 K, 22983 kPa, x2 = 0.9698 | 785.85
332.94 K, 23023 kPa, x2 = 0.0251 | 800
332.94 K, 23838 kPa, x2 = 0.9698 | 793.78
332.94 K, 24078 kPa, x2 = 0.0251 | 800.8
332.94 K, 25033 kPa, x2 = 0.0251 | 801.51
332.96 K, 2025 kPa, x2 = 0.0857 | 785.34
332.96 K, 3025 kPa, x2 = 0.0857 | 786.35
332.96 K, 3995 kPa, x2 = 0.0857 | 787.3
332.96 K, 5006 kPa, x2 = 0.0857 | 788.3
332.96 K, 6029 kPa, x2 = 0.0857 | 789.27
332.96 K, 6996 kPa, x2 = 0.0857 | 790.2
332.96 K, 8001 kPa, x2 = 0.0857 | 791.2
332.96 K, 9060 kPa, x2 = 0.0857 | 792.17
332.96 K, 10005 kPa, x2 = 0.0857 | 793.04
332.96 K, 11020 kPa, x2 = 0.0857 | 793.96
332.96 K, 12043 kPa, x2 = 0.0857 | 794.89
332.96 K, 13021 kPa, x2 = 0.0857 | 795.74
332.96 K, 14023 kPa, x2 = 0.0857 | 796.64
332.96 K, 15013 kPa, x2 = 0.0857 | 797.55
332.96 K, 15989 kPa, x2 = 0.0857 | 798.3
332.96 K, 17015 kPa, x2 = 0.0857 | 799.17
332.96 K, 18001 kPa, x2 = 0.0857 | 799.98
332.96 K, 18996 kPa, x2 = 0.0857 | 800.8
332.96 K, 20012 kPa, x2 = 0.0857 | 801.65
332.96 K, 21010 kPa, x2 = 0.0857 | 802.47
332.96 K, 22025 kPa, x2 = 0.0857 | 803.27
332.96 K, 22983 kPa, x2 = 0.0857 | 804.05
332.96 K, 24061 kPa, x2 = 0.0857 | 804.91
332.96 K, 25000 kPa, x2 = 0.0857 | 805.68
332.99 K, 11100 kPa, x2 = 0.4972 | 807.58
332.99 K, 12062 kPa, x2 = 0.4972 | 809.21
332.99 K, 13082 kPa, x2 = 0.4972 | 810.88
332.99 K, 14087 kPa, x2 = 0.8663 | 752.33
332.99 K, 14115 kPa, x2 = 0.4972 | 812.58
332.99 K, 15053 kPa, x2 = 0.8663 | 762.95
332.99 K, 15061 kPa, x2 = 0.4972 | 814.12
332.99 K, 16035 kPa, x2 = 0.4972 | 815.66
332.99 K, 16081 kPa, x2 = 0.8663 | 772.94
332.99 K, 17073 kPa, x2 = 0.8663 | 781.43
332.99 K, 17108 kPa, x2 = 0.4972 | 817.32
332.99 K, 18040 kPa, x2 = 0.4972 | 818.75
332.99 K, 18052 kPa, x2 = 0.8663 | 789.26
332.99 K, 19036 kPa, x2 = 0.4972 | 820.22
332.99 K, 19049 kPa, x2 = 0.8663 | 796.49
332.99 K, 20021 kPa, x2 = 0.8663 | 803.04
332.99 K, 20051 kPa, x2 = 0.4972 | 821.73
332.99 K, 21046 kPa, x2 = 0.8663 | 809.49
332.99 K, 21048 kPa, x2 = 0.4972 | 823.17
332.99 K, 22048 kPa, x2 = 0.4972 | 824.6
332.99 K, 22064 kPa, x2 = 0.8663 | 815.51
332.99 K, 23005 kPa, x2 = 0.8663 | 820.74
332.99 K, 23047 kPa, x2 = 0.4972 | 826
332.99 K, 24018 kPa, x2 = 0.4972 | 827.36
332.99 K, 24028 kPa, x2 = 0.8663 | 826.19
332.99 K, 25056 kPa, x2 = 0.4972 | 828.77
332.99 K, 25067 kPa, x2 = 0.8663 | 831.43
333 K, 12077 kPa, x2 = 0.5965 | 809.05
333 K, 13047 kPa, x2 = 0.5965 | 811.32
333 K, 14101 kPa, x2 = 0.5965 | 813.7
333 K, 15079 kPa, x2 = 0.5965 | 815.86
333 K, 16069 kPa, x2 = 0.5965 | 817.96
333 K, 17045 kPa, x2 = 0.5965 | 820
333 K, 18064 kPa, x2 = 0.5965 | 822.1
333 K, 19045 kPa, x2 = 0.5965 | 824.02
333 K, 20044 kPa, x2 = 0.5965 | 825.94
333 K, 21039 kPa, x2 = 0.5965 | 827.8
333 K, 22043 kPa, x2 = 0.5965 | 829.66
333 K, 23048 kPa, x2 = 0.5965 | 831.48
333 K, 24011 kPa, x2 = 0.5965 | 833.21
333 K, 25086 kPa, x2 = 0.5965 | 835.1
333.08 K, 6035 kPa, x2 = 0.1842 | 792
333.08 K, 7047 kPa, x2 = 0.1842 | 793.11
333.08 K, 8021 kPa, x2 = 0.1842 | 794.16
333.08 K, 9035 kPa, x2 = 0.1842 | 795.25
333.08 K, 10030 kPa, x2 = 0.1842 | 796.3
333.08 K, 11057 kPa, x2 = 0.1842 | 797.37
333.08 K, 12025 kPa, x2 = 0.1842 | 798.41
333.08 K, 13041 kPa, x2 = 0.1842 | 799.39
333.08 K, 14034 kPa, x2 = 0.1842 | 800.34
333.08 K, 15074 kPa, x2 = 0.1842 | 801.36
333.08 K, 16022 kPa, x2 = 0.1842 | 802.27
